US6136842A, “Sulphur derivatives comprising an amide bond, method for preparing same, use thereof as drugs, and pharmaceutical compositions containing such derivatives” (Hoechst Marion Roussel, priority 1996, dated 2000)
pIC50: −log10 of the molar value.

The compounds below were run against T1, endothelin-converting enzyme (ECE) (Homo sapiens, UniProt P42892) (assay: Determination of the inhibitory effect of the endothelin-converting enzyme (ECE): cleavage of (2,3-^3 H)propionyl-b-ET-1(19-35)). Details: purified ECE, pre-incubated 30 minutes at 37° C., Tris maleate buffer pH=6.5, incubation one hour at 37° C.
T1 sequence (P42892 1-770): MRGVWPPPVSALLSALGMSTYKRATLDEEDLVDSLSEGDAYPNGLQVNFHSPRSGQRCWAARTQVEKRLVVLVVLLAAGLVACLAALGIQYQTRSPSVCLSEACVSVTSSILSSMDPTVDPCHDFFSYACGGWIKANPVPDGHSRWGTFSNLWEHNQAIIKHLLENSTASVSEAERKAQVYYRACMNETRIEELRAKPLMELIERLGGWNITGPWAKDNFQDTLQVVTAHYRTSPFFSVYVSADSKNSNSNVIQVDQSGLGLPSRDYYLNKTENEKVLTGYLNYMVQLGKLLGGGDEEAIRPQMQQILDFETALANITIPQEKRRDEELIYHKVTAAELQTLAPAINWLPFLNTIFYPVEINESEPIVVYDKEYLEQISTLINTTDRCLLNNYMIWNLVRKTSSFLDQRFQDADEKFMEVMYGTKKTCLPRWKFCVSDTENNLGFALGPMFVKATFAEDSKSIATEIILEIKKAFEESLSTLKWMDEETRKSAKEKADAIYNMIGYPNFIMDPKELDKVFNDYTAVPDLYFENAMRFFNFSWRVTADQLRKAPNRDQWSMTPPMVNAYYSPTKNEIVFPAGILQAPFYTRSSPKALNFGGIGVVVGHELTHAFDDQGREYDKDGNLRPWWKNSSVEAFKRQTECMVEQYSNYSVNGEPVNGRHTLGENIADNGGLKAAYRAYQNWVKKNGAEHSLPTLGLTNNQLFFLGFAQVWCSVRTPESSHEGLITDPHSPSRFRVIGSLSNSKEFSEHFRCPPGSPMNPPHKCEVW
Assay type: biochemical
From the text: Determination of the inhibitory effect of the endothelin-converting enzyme (ECE) A test is used, in which the product (2,3-^3 H)propionyl-b-ET-1(19-35) prepared as indicated below in a) is cleaved by ECE into the product (2,3-^3 H)propionyl-b-ET-1(19-21) in the presence of product P of which the inhibitory activity of ECE one wishes to determine as indicated below in b): the inhibitory activity of ECE of the product P will therefore be accordingly as high as the quantity of product of formula (II) formed, determined by counting the radioactivity, will be low. The operation is carried out as follows: b) Determination of the inhibitory activity of the endothelin-converting enzyme (ECE) […] The reaction is initiated by the addition of 10 μl of (2,3-^3 H)propionyl-b-ET-1(-19-35) prepared as indicated above in a), at a final concentration of 1.8.10^-12 M After incubation for one hour at 37° C., the reaction is stopped by the addition of 600 μl of ethyl acetate and the (2,3-^3 H)propionyl-b-ET-1(19-21) is extracted by mechanical agitation for 2 minutes. 300 μl of the organic phase is removed, 5 ml of liquid scintillator is added and the radioactivity is counted for 1 minute with a liquid scintillation counter. Each measurement is carried out in triplicate except for the ECE control (control enzyme, without the product the ECE inhibitory activity of which one wishes to test), for which the measurement is carried out six times. The percentage inhibition is calculated by establishing the relationship: [formula] The blank is carried out starting with the solution obtained without enzyme. The test was validated by its application to known inhibitors i.e. P1 which is phosphoramidon and P2 which is N-(phenylethylphosphonyl)-Leu-Trp (TAKEDA). From the cpm's obtained and by plotting the graph of the percentage of inhibition relative to the concentration of inhibitor (nM), the IC50 is calculated which therefore corresponds to the concentration which causes a 50% inhibition of ECE.
O=C(N[C@@H](Cc1ccc(-c2cccs2)cc1)C(=O)O)C(CS)Cc1cccc(Br)c1 (single isomer, unassigned) [Example 7A] gave a pIC50 of 6.92. O=C(N[C@@H](Cc1c[nH]c2c(OCc3ccccc3)cccc12)C(=O)O)C(CS)Cc1cccc(Br)c1 (stereo partly drawn) [Example 8, N-[3-(3-bromophenyl)-2-(mercaptomethyl)-1-oxopropyl]-7-(phenylmethoxy)-Tryptophan] showed a pIC50 of 6.82. For O=C(N[C@@H](Cc1ccc(-c2ccccc2)cc1)c1nnn[nH]1)[C@@H](CS)Cc1ccccc1 [Example 9, (S,S)N-(2-((1,1'-biphenyl)-4-yl)-1-(1H-tetrazol-5-yl)ethyl)-alpha-(mercaptomethyl)-benzenepropanamide], the pIC50 was 7.15.
